Blank lines part the entries; values can stand above or below the molecule they belong to. Ends that are not written are not given here.
Key:
[1] = biological target: T1, ERα (Homo sapiens, UniProt P03372); experiment: Fluorescence polarization assay: displacement of rhodamine-labeled peptide D22 from estradiol-activated ER; assay type: binding; parameters: purchased Invitrogen; details: for fluorescence polarization titration curve: FIG. 2; for Ki: ERα 75 nM, 17β-estradiol 2 μM, D22 1 nM; for affinity (in words): FP assay
T1 sequence (P03372 1-595): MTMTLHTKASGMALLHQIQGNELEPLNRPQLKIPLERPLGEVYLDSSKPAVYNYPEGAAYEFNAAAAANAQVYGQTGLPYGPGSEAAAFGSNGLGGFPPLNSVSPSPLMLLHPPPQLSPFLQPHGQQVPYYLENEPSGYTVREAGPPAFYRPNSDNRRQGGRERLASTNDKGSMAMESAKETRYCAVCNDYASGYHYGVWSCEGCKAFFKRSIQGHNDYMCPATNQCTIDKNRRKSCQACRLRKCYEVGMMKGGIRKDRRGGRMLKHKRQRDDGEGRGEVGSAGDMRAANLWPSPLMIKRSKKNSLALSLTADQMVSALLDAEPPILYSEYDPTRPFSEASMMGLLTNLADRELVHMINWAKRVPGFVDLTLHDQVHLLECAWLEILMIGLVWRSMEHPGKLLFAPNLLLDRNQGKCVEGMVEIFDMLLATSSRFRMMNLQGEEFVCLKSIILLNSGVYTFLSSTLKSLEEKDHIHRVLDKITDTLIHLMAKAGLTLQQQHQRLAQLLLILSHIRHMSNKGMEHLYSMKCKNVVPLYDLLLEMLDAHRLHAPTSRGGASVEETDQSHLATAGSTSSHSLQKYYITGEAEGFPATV

[2] = biological target: T1, ERα; experiment: Competitive radioligand assay with [3H]estradiol for the estradiol binding site; parameters: purchased MDS Pharma Services (contract assay); host or cells: Sf9 insect cells; details: ERα from human recombinant insect Sf9 cells
Protocol: Inhibition of coactivator binding by a small molecule involves either direct competition with the helical peptide for the ER surface or binding of the small molecule to the ligand binding site as an antagonist, deactivating the ER and preventing coactivator recruitment. To rule out the latter mechanism, a competitive radioligand assay with [^3H]estradiol was carried out to specifically measure the affinity of 3 for the estradiol binding site. According to the radioligand assay, 3 binds to this site with an affinity <0.001% the affinity of 17β-estradiol. […] From this it was concluded that the helix mimetics prevent the coactivator association through direct competition for its binding site on the ER surface. […]
Procedure: Ammonium sulfate precipitates of the hER were dissolved in TDEE buffer containing 100 mM KCl, 0.5 mM leupeptin, and 10% glycerol. […] The hER was incubated with a varied concentration of [^3H]estradiol, and the nonspecific binding was measured by a parallel incubation with [^3H]estradiol plus a 300-fold excess of estradiol for 15 h at 4° C. At the completion of the incubation, 50 μL of each mixture was removed and the total [^3H]estradiol concentration determined. […] The hydroxylapatite pellets were suspended in 1 mL of ethanol and counted in 5 mL of scintillation fluid, and the receptor-bound [^3H]estradiol was measured. […]

[3] = biological target: T1, ERα; parameters: purchased Invitrogen; details: used to obtain Ki from IC50; D22 at 1 nM; read-out: Kd of the fluorescent peptide; cited from earlier work

- fluorescence polarization titration curve [1]: slopes rapidly downward
- Ki ([1]; Table 1 left column): 34 µM
- decrease in affinity ([1]; relative to compound 2): 2 fold
Molecule: CC(C)Cc1cc(-c2c(CC(C)C)cc(O)c(=O)n2CC(C)C)ccn1 [Compound 1, 3-Hydroxy-1,5-diisobutyl-6-(2-isobutyl-4-pyridyl)-1H-pyridin-2-one]

- Ki ([1]; standard deviation in brackets): 16 µM
Molecule: CC(C)CCn1c(-c2ccnc(CC(C)C)c2)c(CC(C)C)cc(O)c1=O [Compound 2, 3-Hydroxy-5-isobutyl-6-(2-isobutyl-4-pyridyl)-1-(3-methylbutyl)-1H-pyridin-2-one]

- Ki ([1]; standard deviation in brackets): 9.4 µM
- affinity for the estradiol binding site relative to 17β-estradiol [2]: < 0.001%
Molecule: CC(C)Cc1cc(-c2c(CC(C)C)cc(O)c(=O)n2CCc2ccccc2)ccn1 [Compound 3, 3-Hydroxy-5-isobutyl-6-(2-isobutyl-4-pyridyl)-1-(2-phenylethyl)-1H-pyridin-2-one]

- Ki ([1]; standard deviation in brackets): > 50 µM
- affinity (in words) [1]: weak affinity
Molecule: CC(C)Cc1cc(-c2c(CC(C)C)cc(O)c(=O)n2CCC(C)(C)C)ccn1 [Compound 4, 3-hydroxy-5-isobutyl-6-(2-isobutyl-4-pyridyl)-1-(3,3-dimethylbutyl)1H-pyridin-2-one]

- Ki ([1]; standard deviation in brackets): > 50 µM
- fluorescence polarization titration curve [1]: about 0.95
- affinity (in words) [1]: weak affinity
Molecule: CC(C)Cc1cc(O)c(=O)n(CCC(C)(C)C)c1-c1ccnc(C(C)(C)C)c1 [Compound 5, 6-(2-tert-Butyl-4-pyridyl)-3-hydroxy-5-isobutyl-1-(3,3-dimethylbutyl)1H-pyridin-2-one]

- Ki ([1]; standard deviation in brackets): 6.5 µM
Molecule: CC(C)Cc1cc(O)c(=O)n(CCc2ccccc2)c1-c1ccnc(Cc2ccccc2)c1 [Compound 6, 6-(2-Benzyl-4-pyridyl)-3-hydroxy-5-isobutyl-1-(2-phenylethyl)-1H-pyridin-2-one]

- Ki ([1]; standard deviation in brackets): 4.2 µM
Molecule: CC(C)Cc1cc(O)c(=O)n(CCc2ccc3ccccc3c2)c1-c1ccnc(Cc2ccccc2)c1 [Compound 7, 6-(2-Benzyl-4-pyridyl)-3-hydroxy-5-isobutyl-1-(2-(2-naphthyl)ethyl)-1H-pyridin-2-one]

- Ki ([1]; standard deviation in brackets): 0.95 µM
- Ki ([1]; Table 1 left column): 1 µM
Molecule: CLTERHKILHRLLQE [SRC-1 NR II, CLTERHKILHRLLQE, reference compound]

Molecule: Rho-LPYEGSLLLKLLRAPVEEV-COOH [Compound D22, rhodamine-labeled peptide which contains a single LXXLL motif, FP probe]
- Kd [3]: 0.031 µM
